In one test the target is Wee1 (h) (Homo sapiens, UniProt P30291). Nature of the test: Wee1 kinase (h) detection method, [γ-33P]-ATP filter assay. The class given is biochemical.
The subject of the next test is LoVo cells. As to the kind of experiment: MTT based cell viability assay on LoVo cells. The following applies: Homo sapiens, LoVo, 72 h, 3 d, read-out: IC50, growth inhibition of LoVo cells. The method in brief: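 Inhibition of LoVo proliferation was derived as IC50 from a sigmoidal dose-response fit of cell survival. Readout was MTT (0.5 mg/mL, 4 h) with absorbance at 552/630/690 nm, after 3-day treatment at 37 °C. Eight-point series from 10 μM to 0.01 μM, DMSO control, 1% DMSO final.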

In a further test the test system is NCI-H1299 cells. As to the kind of experiment: MTT based cell viability assay on NCI-H1299 cells. The following applies: Homo sapiens, read-out: IC50, growth inhibition of NCI-H1299 cells. The method in brief:
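Viability read-out was MTT reduction (0.5 mg/mL, 4 h, absorbance 552/630/690 nm) after 3-day compound exposure at 37 °C of NCI-H1299 cells seeded at 1000 per well. Dilutions spanned 10 μM–0.01 μM in DMSO, final DMSO 1‰. Survival-versus-concentration curves were fitted sigmoidally to give IC50.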

Like-named read-outs stand apart in the source and are kept apart here.

Sequence of Wee1 (h) (P30291 whole entry): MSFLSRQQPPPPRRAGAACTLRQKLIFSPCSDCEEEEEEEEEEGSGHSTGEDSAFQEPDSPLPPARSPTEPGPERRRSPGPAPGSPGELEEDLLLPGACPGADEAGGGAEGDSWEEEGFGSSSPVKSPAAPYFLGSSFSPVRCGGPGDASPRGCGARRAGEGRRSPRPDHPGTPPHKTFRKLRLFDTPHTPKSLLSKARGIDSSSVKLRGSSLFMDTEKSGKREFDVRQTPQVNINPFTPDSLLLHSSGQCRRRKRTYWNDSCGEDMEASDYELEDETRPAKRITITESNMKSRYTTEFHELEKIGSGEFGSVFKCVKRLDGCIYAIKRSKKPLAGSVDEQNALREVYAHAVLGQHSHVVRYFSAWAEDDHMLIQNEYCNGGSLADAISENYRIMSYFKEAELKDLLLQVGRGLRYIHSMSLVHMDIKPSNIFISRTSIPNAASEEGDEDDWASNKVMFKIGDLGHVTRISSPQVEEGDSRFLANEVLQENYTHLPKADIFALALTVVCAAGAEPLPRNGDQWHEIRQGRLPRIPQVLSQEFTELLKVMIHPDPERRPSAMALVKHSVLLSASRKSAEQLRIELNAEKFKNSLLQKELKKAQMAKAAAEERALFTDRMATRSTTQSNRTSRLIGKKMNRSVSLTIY

The term IC50 denotes the concentration needed to halve the response being measured. Consider `CN(C)C1CCN(c2c(Cl)cc(Nc3ncc4c(n3)N3CCN=C3N(c3c(Cl)cccc3Cl)C4=O)cc2Cl)CC1` [Example 142, 6-(2,6-Dichlorophenyl)-2-((3,5-dichloro-4-(4-(dimethylamino)piperidin-1-yl)phenyl)amino)-8,9-dihydroimidazo[1,2-a]pyrimido[5,4-e]pyrimidin-5(6H)-one], for which the results for the “Inh. (%) of Wee1 kinase enzyme activity” value on Wee1 (h) (C 0.01 μm compound), at Wee1 (h) (C 0.1 μm compound) and on Wee1 (h) (C 1 μm compound) were 22%, 75% and 95%, respectively. Also, the IC50 in the test with LoVo cells was 51.4 nM; in the test on NCI-H1299 cells (NCI-H1299, NCI-H1299 cells), 109 nM.
Taken in the same sequence, the figures for `COc1cc(Nc2ncc3c(n2)N2CCN=C2N(c2c(Cl)cccc2Cl)C3=O)cc(Cl)c1N1CCC(N(C)C)CC1` [Example 144, 6-(2,6-Dichlorophenyl)-2-((3-chloro-4-(4-(dimethylamino)piperidin-1-yl)-5-methoxyphenyl)amino)-8,9-dihydroimidazo[1,2-a]pyrimido[5,4-e]pyrimidin-5(6H)-one] were 19%, 76%, 97%, 61.5 nM and 140 nM.
With `CN1CCN(c2ccc(Nc3ncc4c(n3)N3CCN=C3N(c3c(Cl)cccc3Cl)C4=O)cc2Br)CC1` [Example 145, 6-(2,6-Dichlorophenyl)-2-((3-bromo-4-(4-methylpiperazin-1-yl)phenyl)amino)-8,9-dihydroimidazo[1,2-a]pyrimido[5,4-e]pyrimidin-5(6H)-one], the “Inh. (%) of Wee1 kinase enzyme activity” value is recorded as 21% at Wee1 (h) (C 0.01 μm compound), 72% on Wee1 (h) (C 0.1 μm compound) and 97% on Wee1 (h) (C 1 μm compound). The IC50 is 84.9 nM in the test with LoVo cells and 219 nM in the test with NCI-H1299 cells (NCI-H1299 cells).
Taken in the same sequence, the figures for `COc1cc(Nc2ncc3c(n2)N2CCN=C2N(c2c(Cl)cccc2Cl)C3=O)ccc1N1CCN(C)CC1` [Example 146, 6-(2,6-Dichlorophenyl)-2-((3-methoxy-4-(4-methylpiperazin-1-yl)phenyl)amino)-8,9-dihydroimidazo[1,2-a]pyrimido[5,4-e]pyrimidin-5(6H)-one] were 9%, 85%, 95%, 83.3 nM and 250 nM.
On to `CN1CCN(c2c(F)cc(Nc3ncc4c(n3)N3CCN=C3N(c3c(Cl)cccc3Cl)C4=O)cc2Cl)CC1` [Example 147, 6-(2,6-Dichlorophenyl)-2-((3-chloro-5-fluoro-4-(4-methylpiperazin-1-yl)phenyl)amino)-8,9-dihydroimidazo[1,2-a]pyrimido[5,4-e]pyrimidin-5(6H)-one], for which the “Inh. (%) of Wee1 kinase enzyme activity” value on Wee1 (h) (C 0.01 μm compound) came to 42%; on Wee1 (h) (C 0.1 μm compound), 86%; on Wee1 (h) (C 1 μm compound), 96%. For the same compound, the concentration for half-maximal inhibition (IC50) in the test with LoVo cells turned out to be 91.1 nM; in the test on NCI-H1299 cells (NCI-H1299, NCI-H1299 cells), 209 nM.
The corresponding values for `Cc1cc(Nc2ncc3c(n2)N2CCN=C2N(c2c(Cl)cccc2Cl)C3=O)cc(F)c1N1CCN(C)CC1` [Example 148, 6-(2,6-Dichlorophenyl)-2-((3-fluoro-5-methyl-4-(4-methylpiperazin-1-yl)phenyl)amino)-8,9-dihydroimidazo[1,2-a]pyrimido[5,4-e]pyrimidin-5(6H)-one] are 40%, 90%, 94%, 39.8 nM and 123 nM.
For the compound `COc1cc(Nc2ncc3c(n2)N2CCN=C2N(c2c(Cl)cccc2Cl)C3=O)cc(F)c1N1CCN(C)CC1` [Example 149, 6-(2,6-Dichlorophenyl)-2-((3-fluoro-5-methoxy-4-(4-methylpiperazin-1-yl)phenyl)amino)-8,9-dihydroimidazo[1,2-a]pyrimido[5,4-e]pyrimidin-5(6H)-one], the “Inh. (%) of Wee1 kinase enzyme activity” value on Wee1 (h) (C 0.01 μm compound) came out at 22%; at Wee1 (h) (C 0.1 μm compound) it was 72%; at Wee1 (h) (C 1 μm compound) it was 94%. The IC50 worked out at 59.4 nM in the test on LoVo cells and 113 nM with NCI-H1299 cells (NCI-H1299, NCI-H1299 cells).

Values taken from patent US11345711B2, “8,9-dihydroimidazo[1,2-a]pyrimido[5,4-e]pyrimidin-5(6H)-ones” (IMPACT THERAPEUTICS (SHANGHAI), INC, priority 2016, dated 2022).
